Test results taken from paper PMC9053816, “A polypeptide model for toxic aberrant proteins induced by aminoglycoside antibiotics” (PLoS ONE, 2022).
“Also recorded” adds a separate entry of the source. Where two headings read alike, the source gives them in different places.

How the values were obtained:
E. coli BL21 cells = assay: Hoechst 33342 uptake by fluorescence microscopy; type: cell-based, Escherichia coli
Procedure: (§1) Culture samples (0.3 ml) collected at the indicated times were centrifuged and the cell pellets were resuspended in 20–100 μl of Tris-buffered saline pH 8 (TBS) and held on ice. Cell suspensions were then stained with 1 μl of Hoechst 33342 (10 mg/ml stock solution was first diluted 1:100 in TBS). After incubation for 10 min on ice, 2 μl samples of cell suspension were mounted on coverslides using agarose blocks as described. Cells were then examined by epi-fluorescence microscopy, using a Zeiss Axiophot and a 63X oil immersion lens. Exposure times for 2-channel images (both transmitted and reflected light) were set automatically using on-board Zen 2011 software. In some experiments as noted, exposure times for reflected light images were fixed at 1 s, for comparison of relative fluorescence intensity. Brightfield images of E. coli cell aggregates were taken with a Nikon Eclipse T2 inverted microscope using a 20X lens and laser-based LED white light source, located at the Brookhaven National Laboratory Center for Functional Nanomaterials.

E. coli BL21 nucleoids [1] = assay: Nucleoid conformation by fluorescence microscopy; type: cell-based, Escherichia coli; settings: for Nucleoid conformation: H33342 staining, BL21 (Fig 6, S6 Fig)
Procedure: as §1
A culture sample also was left untreated (UT) for comparison. Cell samples were then collected after further incubation for 20, 40 or 60 min, washed with PBS, stained with H33342, and mounted on glass slides under agarose pads for fluorescence microscopy using a 40X oil immersion lens. The exposure time for each image was automatically set by microscope software. Scale bar = 20 μm. (TIF) Click here for additional data file.

E. coli BL21 [2] = assay: Cell viability (colony counts / spot dilution on LB agar); type: cell-based, Escherichia coli
Procedure: (§2) All growth studies were performed in Luria-Bertani (LB) broth containing Penicillin G (150 μg/ml), using E. coli BL21 as the host strain except where noted. Frozen stocks of cell strains were first grown overnight at 30°C, without shaking, in 2 ml of LB containing PenG. The starter cultures were then diluted 1:100 in 3.5 ml of LB containing PenG, in plastic 15x90 mm tubes with loose-fitting caps, and the tubes were then tilted about 15–20 degrees from vertical and incubated at 37°C with shaking (300 rpm). Cell growth for all experiments except those shown in Fig 1 was monitored at the indicated times by measuring the optical density of culture samples (diluted 1:10 in saline) at 600 nm, using a Perkin Elmer Lambda 14 UV/VIS spectrophotometer and semi-micro glass cuvettes (1 ml sample volume). For the experiments shown in Fig 1, OD600 measurements were performed on 200 μl of undiluted culture using a 96-well plate reader. […] To measure cell viability, culture samples were serially diluted in LB broth, mixed with molten top agar and plated on LB agar containing PenG. The number of colonies was then counted after overnight incubation of plates at 37°C.
Supplementary file pone.0258794.s001.tif: S1 Fig Bactericidal effect of Kanamycin. Samples of an E. coli BL21 culture growing in LB broth were treated at early log phase (T = 0) with Cm (30 μg/ml) or Kan (50 μg/ml). After further incubation at 37°C for 30 or 60 min, samples of the untreated (UT) and antibiotic-treated cultures were diluted (serial 1:10), and 3 μl of each dilution was spotted onto an LB agar plate. The plate was then photographed after incubation overnight at 37°C. (TIF) Click here for additional data file.

E. coli DnaK = settings: by comparison with NR and σ32 peptides; cited from earlier work
E. coli BL21 [3] = assay: Growth analysis (culture OD600); type: cell-based, Escherichia coli
Procedure: as §2

E. coli BL21 nucleoids [4] = tested on: E. coli BL21 nucleoids; parameters: method as in PMID 25250841; settings: transcription inhibited; cited from earlier work

Procedure for σ32 transcription factor: E, Western blot analysis of σ32 levels in cells following exposure to the indicated antibiotics for 20, 60, or 120 min as indicated. Cell extract from a non-induced culture was loaded in lane 1.
Equal volumes of cell cultures were centrifuged, and cell pellets were resuspended directly in 2X Laemmli sample buffer at a concentration of 5 OD600 units per ml based on culture OD600 at the time of sampling. To reduce viscosity, samples were sonicated using a cuphorn sonicator or passed through a 27-gauge needle prior to loading on SDS-polyacrylamide gels. Proteins were visualized either by staining gels directly with Coomassie Blue or after semi-dry electroblotting to immobilon membranes for Western blot analysis. Anti-σ32 monoclonal antibodies were purchased from BioLegend, San Diego, CA. Rabbit anti-DnaK and DnaJ serum was kindly provided by B. Bukau. Anti-GroEL antibodies were purchased from Sigma-Aldrich.
An aliquot of culture also was left untreated (NI) for comparison. Cultures were then incubated at 37°C with shaking, and cell growth was monitored by measuring culture optical density at 600 nm (OD600) using a microplate reader. B, samples of each culture were collected at 20, 60 and 90 min after treatment, and cells were lysed in 2X SDS-PAGE sample buffer at a concentration of 1.2 OD600 units per ml. Equal volumes of each sample were then analyzed by Western blotting, using antibodies against σ32 and σ70. Only the 20 min and 60 min samples of the Spectinomycin-treated culture were analyzed.

Molecule: CN[C@@H]1[C@H](O)[C@H](NC)[C@H]2O[C@@]3(O)C(=O)C[C@@H](C)O[C@H]3O[C@@H]2[C@H]1O [spectinomycin]
- σ32 levels following exposure (σ32 transcription factor; non-resistant cells, 20 μg/ml, 20 and 60 min (S2 Fig)): unchanged

Molecule: O=C(N[C@H](CO)[C@H](O)c1ccc([N+](=O)[O-])cc1)C(Cl)Cl [Cm, chloramphenicol]
- Exposure time set automatically by camera software (H33342 fluorescence) (E. coli BL21 cells; 10 min after ARF48 induction or 60 min after Cm 30 or 200 μg/ml, non-induced culture 1.7 s): 0.22 s
- Uptake of H33342 following exposure (E. coli BL21 cells; Cm 30 or 200 μg/ml (Fig 6)): enhanced
- Nucleoid conformation (E. coli BL21 nucleoids [1]): radially condensed
- Time until nucleoids radially condensed (E. coli BL21 nucleoids [1]; after induction of expression or after exposure): 30 to 45 min
- Cell viability following growth arrest (E. coli BL21 [2]; 30 μg/ml, samples at 0, 1, 2 and 5 h (Fig 2E)): remained viable for several hours
- Cell viability during exposure (E. coli BL21 [2]; Cm 30 μg/ml, 30 or 60 min (S1 Fig)): fully retained
- Cell viability at higher concentration (E. coli BL21 [2]; higher concentration than 30 μg/ml (200 μg/ml, Fig 2E)): increasingly toxic

Molecule: Kemptide
- Recognition by DnaK (earlier studies) (E. coli DnaK): poorly recognized

Molecule: Cc1c2c(c(O)c3c(O)cccc13)C(=O)[C@]1(O)C(=O)C(C(N)=O)=C(O)[C@@H](N(C)C)[C@@H]1C2 [aTc, anhydrotetracycline]
- Cell growth (E. coli BL21 [3]; 0.2 μg/ml in culture medium): not inhibited; also recorded: does not inhibit growth

Molecule: CO[C@H]1/C=C/O[C@@]2(C)Oc3c(C)c(O)c4c(O)c(c(/C=N/N5CCN(C)CC5)c(O)c4c3C2=O)NC(=O)/C(C)=C\C=C\[C@H](C)[C@H](O)[C@@H](C)[C@@H](O)[C@@H](C)[C@H](OC(C)=O)[C@@H]1C [rifampicin]
- Nucleoid conformation (E. coli BL21 nucleoids [4]): transient condensation

Molecule: NC[C@H]1O[C@H](O[C@H]2[C@H](O)[C@@H](O[C@H]3O[C@H](CO)[C@@H](O)[C@H](N)[C@H]3O)[C@H](N)C[C@@H]2N)[C@H](O)[C@@H](O)[C@@H]1O [Kan, kanamycin]
- σ32 concentration over time (σ32 transcription factor; 20, 60 or 120 min of exposure (Fig 1E)): remained elevated
- σ32 level in cells (σ32 transcription factor; 60 min after exposure, range of doses (Fig 1D)): accumulated to high relative concentration
- Nucleoid conformation (E. coli BL21 nucleoids [1]): only transient
- Cell division (E. coli BL21 [3]; low dose 3 μg/ml): slowed but did not completely halt cell division
- Decrease of cell viability (E. coli BL21 [2]; first hour of exposure, Kan 50 μg/ml (S1 Fig)): 5–6 orders of magnitude
